The CheMixHub ionic liquid set

Assay: xn = mol fraction of the nth substance listed

N[C@@H](Cc1c[nH]cn1)C(=O)O + CCCCCCCCCCCC[N+](C)(C)C.[Br-] + O
viscosity [mPa·s], 101 kPa
Conditions | 293.15 K | 298.15 K | 303.15 K | 308.15 K | 313.15 K
x1 = 0.0001801, x2 = 0.0001083 | 1.03 | 0.904 | 0.816 | 0.738 | 0.668
x1 = 0.0001801, x2 = 0.0001624 | 1.033 | 0.908 | 0.816 | 0.741 | 0.669
x1 = 0.0001801, x2 = 0.0002165 | 1.035 | 0.909 | 0.821 | 0.745 | 0.67
x1 = 0.0001801, x2 = 0.0002706 | 1.038 | 0.918 | 0.823 | 0.748 | 0.672
x1 = 0.0001801, x2 = 0.0003247 | 1.043 | 0.925 | 0.827 | 0.751 | 0.674
x1 = 0.0001801, x2 = 0.0003788 | 1.048 | 0.927 | 0.839 | 0.753 | 0.676
x1 = 0.0001801, x2 = 0.0004329 | 1.056 | 0.931 | 0.843 | 0.756 | 0.68
x1 = 0.0001801, x2 = 0.000487 | 1.06 | 0.935 | 0.849 | 0.758 | 0.685
x1 = 0.0001801, x2 = 0.000541 | 1.062 | 0.935 | 0.851 | 0.76 | 0.689
x1 = 0.0001802, x2 = 5.413e-05 | 1.027 | 0.901 | 0.815 | 0.736 | 0.667
x1 = 0.0008997, x2 = 0.000544 | 1.041 | 0.906 | 0.823 | 0.737 | 0.651
x1 = 0.0008998, x2 = 0.0003809 | 1.032 | 0.891 | 0.808 | 0.728 | 0.646
x1 = 0.0008998, x2 = 0.0004352 | 1.035 | 0.894 | 0.812 | 0.732 | 0.647
x1 = 0.0008998, x2 = 0.0004896 | 1.038 | 0.9 | 0.818 | 0.734 | 0.649
x1 = 0.0008999, x2 = 0.0002721 | 1.029 | 0.885 | 0.803 | 0.724 | 0.644
x1 = 0.0008999, x2 = 0.0003265 | 1.03 | 0.888 | 0.806 | 0.727 | 0.645
x1 = 0.0009, x2 = 0.0001633 | 1.025 | 0.879 | 0.8 | 0.722 | 0.641
x1 = 0.0009, x2 = 0.0002177 | 1.027 | 0.881 | 0.802 | 0.722 | 0.643
x1 = 0.0009001, x2 = 5.443e-05 | 1.02 | 0.874 | 0.796 | 0.721 | 0.64
x1 = 0.0009001, x2 = 0.0001089 | 1.022 | 0.876 | 0.799 | 0.721 | 0.64
x1 = 0.001798, x2 = 0.0001644 | 1.065 | 0.915 | 0.85 | 0.756 | 0.685
x1 = 0.001798, x2 = 0.0002191 | 1.067 | 0.916 | 0.854 | 0.759 | 0.688
x1 = 0.001798, x2 = 0.0002739 | 1.068 | 0.919 | 0.858 | 0.76 | 0.691
x1 = 0.001798, x2 = 0.0003287 | 1.07 | 0.92 | 0.862 | 0.764 | 0.693
x1 = 0.001798, x2 = 0.0003835 | 1.072 | 0.923 | 0.867 | 0.771 | 0.696
x1 = 0.001798, x2 = 0.0004382 | 1.079 | 0.927 | 0.87 | 0.776 | 0.701
x1 = 0.001798, x2 = 0.000493 | 1.083 | 0.931 | 0.876 | 0.781 | 0.706
x1 = 0.001798, x2 = 0.0005477 | 1.089 | 0.939 | 0.881 | 0.786 | 0.709
x1 = 0.001799, x2 = 5.48e-05 | 1.061 | 0.908 | 0.842 | 0.751 | 0.68
x1 = 0.001799, x2 = 0.0001096 | 1.064 | 0.912 | 0.846 | 0.755 | 0.683

CCO + CCOC(C)(C)C + CCOS(=O)(=O)[O-].CC[n+]1ccn(C)c1
Conditions | viscosity [mPa·s]
298.15 K, 101 kPa, x1 = 1, x2 = 0 | 1.077

CCO + CC[n+]1ccn(C)c1.[I-]
Conditions | electrical conductivity [S/m]
298.15 K, 100 kPa, x2 = 0 | 5.54e-05

CCO + CCOP(=O)([O-])OCC.CC[N+]1(C)CCCC1
100 kPa, x2 = 0
Conditions | viscosity [mPa·s]
293.15 K | 1.18
298.15 K | 1.11
303.15 K | 0.98
308.15 K | 0.89
313.15 K | 0.82
318.15 K | 0.75
323.15 K | 0.69
328.15 K | 0.65
333.15 K | 0.6
338.15 K | 0.56

CCCC[N+]1(C)CCCC1.F[B-](F)(F)F + CC1COC(=O)O1 + CCCC[N+]1(C)CCCC1.O=S(=O)([N-]S(=O)(=O)C(F)(F)F)C(F)(F)F
293.15 K, 100 kPa, x2 = 0.4706, x3 = 0.05882
Conditions | electrical conductivity [S/m] | viscosity [mPa·s]
– | 0.96 | 7.6

CC[S+](CC)CCOCC[S+](CC)CC.N#C[N-]C#N.N#C[N-]C#N + CC[n+]1ccn(C)c1.N#C[N-]C#N + O=S(=O)([N-]S(=O)(=O)C(F)(F)F)C(F)(F)F.[Li+]
100 kPa, x1 = 0.2884, x2 = 0.6258
Conditions | electrical conductivity [S/m]
298 K | 0.519
303 K | 0.632
313 K | 0.863
323 K | 1.17
333 K | 1.54
343 K | 1.95

CCO + CCOP(=O)([O-])OCC.CC[n+]1ccn(C)c1
Conditions | viscosity [mPa·s]
318.15 K, 100 kPa, x2 = 0 | 0.75

Oc1cccc(O)c1O + CCC[N+](CCC)(CCC)CCC.[Br-]
101.3 kPa, x2 = 0.5
Conditions | electrical conductivity [S/m] | viscosity [mPa·s]
293.15 K | 0.00158 | 36500
298.15 K | 0.00309 | –
303.15 K | 0.00531 | 17000
308.15 K | 0.0126 | 11500
313.15 K | 0.0186 | 6800
333.15 K | 0.0967 | 850

CC(=O)N(C)C + CCCC[n+]1ccn(C)c1.F[B-](F)(F)F
viscosity [mPa·s], 101 kPa
Conditions | 293.15 K | 298.15 K | 303.15 K | 308.15 K | 313.15 K | 318.15 K | 323.15 K
x1 = 1 | – | – | – | – | 0.778 | – | –
x2 = 0 | 1.02 | 0.94 | 0.87 | 0.82 | 0.78 | 0.74 | 0.72

CCCCCCCCCCCCOS(=O)(=O)[O-].CCCC[n+]1ccn(C)c1 + O
Conditions | viscosity [mPa·s]
333 K, 101 kPa, x1 = 0.06262 | 970000

CC(=O)[O-].CC[NH2+]CC + O
Conditions | electrical conductivity [S/m] | viscosity [mPa·s]
283.15 K, 100.9 kPa, x1 = 0.168 | – | 27.4
283.15 K, 100.9 kPa, x1 = 0.24 | – | 55.1
283.15 K, 100.9 kPa, x1 = 0.351 | – | 92.3
288.15 K, 100.9 kPa, x1 = 0.549 | – | 105
295.65 K, 100.9 kPa, x1 = 0.168 | – | 14.67
298.15 K, 101 kPa, x1 = 0.0174 | 2.06 | –
298.15 K, 101 kPa, x1 = 0.0967 | 2.21 | –
298.15 K, 101 kPa, x1 = 0.199 | – | 14.82
298.15 K, 101 kPa, x1 = 0.1997 | 1.52 | –
298.15 K, 101 kPa, x1 = 0.6989 | 0.361 | –
298.15 K, 101 kPa, x1 = 0.877 | – | 57.2
300.65 K, 100.9 kPa, x1 = 0.168 | – | 11.78
303.15 K, 100.9 kPa, x1 = 0.168 | 2.24 | 10.62
303.15 K, 100.9 kPa, x1 = 0.351 | – | 30.6
305.65 K, 100.9 kPa, x1 = 0.24 | – | 17.47
310.65 K, 100.9 kPa, x1 = 0.24 | – | 14.12
310.65 K, 100.9 kPa, x1 = 0.549 | – | 32.6
313.15 K, 100.9 kPa, x1 = 0.549 | – | 29.2
315.65 K, 100.9 kPa, x1 = 0.119 | – | 4.25
315.65 K, 100.9 kPa, x1 = 0.168 | – | 6.65
315.65 K, 100.9 kPa, x1 = 0.714 | – | 30.1
318.15 K, 100.9 kPa, x1 = 0.007 | 2.25 | –
318.15 K, 100.9 kPa, x1 = 0.353 | 1.34 | –
328.15 K, 100.9 kPa, x1 = 0.015 | – | 0.728
328.15 K, 100.9 kPa, x1 = 0.549 | – | 16.18
330.65 K, 100.9 kPa, x1 = 0.015 | – | 0.692
330.65 K, 100.9 kPa, x1 = 0.055 | – | 1.339
330.65 K, 100.9 kPa, x1 = 0.119 | – | 2.78
330.65 K, 100.9 kPa, x1 = 0.168 | – | 4.17
333.15 K, 100.9 kPa, x1 = 0.007 | 2.64 | –
333.15 K, 100.9 kPa, x1 = 0.119 | – | 2.61
333.15 K, 100.9 kPa, x1 = 0.351 | – | 9.26
333.15 K, 100.9 kPa, x1 = 0.55 | 1.07 | –
333.15 K, 100.9 kPa, x1 = 0.84 | – | 15.7
335.65 K, 100.9 kPa, x1 = 0.168 | – | 3.63
340.65 K, 100.9 kPa, x1 = 0.168 | – | 3.19
343.15 K, 100.9 kPa, x1 = 0.055 | – | 1.052
348.15 K, 100.9 kPa, x1 = 0.353 | 2.81 | –
348.15 K, 100.9 kPa, x1 = 0.55 | 1.68 | –
348.15 K, 100.9 kPa, x1 = 0.714 | 1.3 | –
348.15 K, 100.9 kPa, x1 = 0.838 | 1.11 | –
363.15 K, 100.9 kPa, x1 = 0.168 | 9.08 | –
363.15 K, 100.9 kPa, x1 = 0.945 | 1.27 | –

CCO + COP(=O)([O-])OC.C[N+]1(CCO)CCCC1
Conditions | viscosity [mPa·s]
298.15 K, 100 kPa, x2 = 0 | 1.08
